In brackets after ≈: the same amount, converted by molar mass. Several values for one entry are separate records, joined by “and”; a condition that tells them apart may be missing. Equal values may be shown once. Entries after “also recorded” stand apart in the source; their conditions may differ.
Key:
Yellow fever virus = details: Vero
herpesvirus = details: less effective by a factor; cited from earlier work
humoral immune response = details: tumor bearing animals; cited from earlier work
[1] = test system: respiratory syncytial virus (RSV); test: RSV infection in cotton rats, lung titre; format: in vivo, cotton rat; details: for RSV lung titre: individual animal
Text: 1. 50 to 100 g cotton rats of either sex inoculated i.n. with RS A2 (pool 8-28-92) on day 0.
2. On day +1 animals were given placebo or PALA as follows:
3. All animals killed on day +4 and their lungs tested for RSV levels.

[2] = Cytotoxicity in Hep-2 cells; details: human
RNA and DNA viruses = format: cell-based; details: most viruses of Table 3
[3] = test system: Japanese encephalitis virus; details: Vero; 50% inhibition
Paramyxo-3 = test: In vitro antiviral assay; format: cell-based
Punta toro virus = details: Vero
Varicella = test: In vitro antiviral assay; format: cell-based; details: Vero
Coxsackie B3 = test: In vitro antiviral assay; format: cell-based
simian varicella virus = test: Simian varicella virus infection in African green monkeys; format: in vivo, African green monkey
Description: Fifteen African green monkeys were weighed and bled for clinical chemistry hematology baselines. […] Each of the 15 monkeys were infected with simian varicella virus by intratracheal inoculation of 3.7×10^4 plaque forming units (PFU) of simian varicella virus. […] Control monkeys, service as infection controls, received twice daily intravenous injections of phosphate buffered saline administered at 1.0 ml/kg of body weight. A second group of three monkeys received PALA at 50 mg/kg/day given by intravenous bolus injection into the saphenous vein. A third group was given a lower dose of PALA at 20 mg/kg/day administered in a similar manner. Acyclovir treatment was administered at a subeffective dose of 10 mg/kg/day also given as intravenous bolus injection into the saphenous vein. A fifth group of three monkeys received a combined treatment of PALA at 20 mg/kg/day and acyclovir at 10 mg/kg/day. The drugs were injected into opposite veins at each time of treatment.
Drug solutions were prepared daily prior to treatment. Treatment was begun 24 hours after virus inoculation. PALA was provided as a solution in vials containing 5 ml at 100 mg/ml. The contents of three vials were pooled and seven ml of the pooled drug diluted to 28 ml to give 25 mg/ml. Five ml of this solution was diluted to […] to give 10 mg/ml. Drug was administered twice daily resulting in total daily doses of 50 or 20 mg/kg/day.
Acyclovir received as a gift from Burroughs Wellcome was weighed out as a 200 mg quantity. This was diluted with 5 ml of PBS and pH adjusted to 11.0 with 1N NaOH to effect solution. This was subsequently diluted to 40 ml to give a solution of 5 mg/ml and sterilized by filtration. Again, 1 ml per kg of body weight was administered by intravenous injection twice daily resulting in a dose of 10 mg/kg/day.
The clinical course of simian varicella infection was followed by collection of 2 ml of blood in heparin on day 2, 5, 7, 9 and 11 post-inoculation. The lymphocytes in the 2 ml specimen were separated on ficol-hypaque gradients, washed twice in RPMI-1640 medium and suspended in 10 ml of this medium. The 10 ml volume was divided between two 25 cm^2 tissue culture flasks seeded 24 hours earlier with Vero cells. After 5-7 days incubation, the culture fluids were discarded from the flasks and the cell monolayer fixed with methanol and stained with methylene blue-basic fuchsin. When dried the number of plaques in each flask were counted and the mean number of plaques between the two paired flasks were determined and expressed as a quantitation of viremia per ml of blood.
Rash was evaluated daily using a subjective scoring of severity from ± to 4+. A ± score indicates less than 10 vesicles seen on the skin of the monkey while 4+ indicates numerous vesicles covering the majority of the body surface. General clinical condition was assessed daily and anorexia noted by counting the number of food biscuits consumed daily. Monkeys dying during the course of the experiment were necropsied and simian varicella was determined as the cause of death based on the typical pathology. Baseline hematology and clinical chemistry tests were performed at three days before virus inoculation and again on day 0, immediately before virus inoculation. Following inoculation of simian varicella virus blood was taken for hematology and clinical chemistry tests at 3, 7, 9 and 11 days.
At 14 and 21 days after virus inoculation, blood was taken and the serum separated for quantitation of antibody. Antibody titers were obtained in a serum neutralization test employing a plaque reduction assay. The antibody titer expressed is the dilution of serum resulting in an 80 percent reduction in the number of plaques from that number occurring in control cultures without added serum.

CMV = test: In vitro antiviral assay; format: cell-based
[4] = test system: Venezuelan equine encephalitis virus; details: Vero; 50% inhibition
in vitro = details: human, cem cells

With `O=C(O)C[C@H](NC(=O)CP(=O)(O)O)C(=O)O` [PALA] as the molecule, how does the IC50 (Yellow fever virus) read?
The IC50 was 13.4 µg/mL (≈ 52.5 µM).

And the “TI (TC50/IC50)” value (Yellow fever virus; 50% inhibition)?
Its value is > 19.22 and > 23.82.

And the “TI(95)” value (Yellow fever virus; 95% inhibition)?
The value was > 10.68 and > 10.38.

And the “antiherpes effectiveness relative to parent PAA” value (herpesvirus)?
Its value is “over 200”.

What about the “effect on humoral immune response” value (humoral immune response) of the same molecule?
Its value is “does not appear to significantly alter humoral immune response”.

What about the “RSV lung titre, mean (SD)” value ([1]; PALA 3 mg/kg/day) of the same molecule?
The value was 3.3 (0.3) LOG10 /G Lung.

And the RSV lung titre ([1]; PALA 3 mg/kg)?
The RSV lung titre was 3.9 LOG10 and 3.5 LOG10 and 2.9 LOG10 and 3.0 LOG10.

And the “RSV lung titre, mean (SD)” value ([1]; PALA 10 mg/kg/day)?
Its value is 2.8 (0.5) LOG10 /G Lung.

And the “decrease of viral titre over control” value ([1]; PALA 10 mg/kg/day)?
Its value is 1 log10.

What about the RSV lung titre ([1]; PALA 10 mg/kg) of the same molecule?
The RSV lung titre was 2.4 LOG10 and 2.9 LOG10 and 2.5 LOG10 and 3.5 LOG10.

And the “efficacy against RSV” value ([1]; i.p.)?
The value was “more effective than ribavirin or combinational therapy; also recorded: statistically significant efficacy; also recorded: statistically better than ribavirin; also recorded: more effective as a single agent therapy in vivo against respiratory syncytial virus than ribavirin”.

And the CC50 [2]?
The CC50 was over 320 µg/mL.

What about the therapeutic index (RNA and DNA viruses) of the same molecule?
The therapeutic index was “about 32”.

And the “TI (TC50/IC50)” value [3]?
The value was > 18.59 and > 18.80.

What about the IC50 (Paramyxo-3; HEp-2) of the same molecule?
The IC50 was 10 µg/mL (≈ 39.2 µM).

What about the TI (Paramyxo-3; Hep-2) of the same molecule?
The TI was 32.0.

And the IC50 (Punta toro virus)?
Its IC50 is 18.4 µg/mL (≈ 72.1 µM).

And the “TI (TC50/IC50)” value (Punta toro virus; 50% inhibition)?
The value was > 21.05 and > 17.35.

And the “TI(95)” value (Punta toro virus; 95% inhibition)?
Its value is over 10.00.

And the IC50 (Varicella)?
The IC50 was 10 µg/mL (≈ 39.2 µM).

And the TI (Varicella)?
The TI was 32.0.

What about the IC50 (Coxsackie B3; Enterovirus B, B3, Vero) of the same molecule?
The IC50 was about 33 µg/mL (≈ 129 µM).

What about the TI (Coxsackie B3; Vero) of the same molecule?
The TI was 9.7.

And the death (simian varicella virus; PALA 20 mg/kg/day i.v.)?
The death was “died later that same day”.

What about the death (simian varicella virus; PALA 50 mg/kg/day i.v.) of the same molecule?
The death was “died on day 10”.

What about the “thrombocytopenia on day 11” value (simian varicella virus; PALA 50 or Acyclovir 10 mg/kg/day) of the same molecule?
The value was “one monkey”.

What about the “Viremia, Mean PFU” value (simian varicella virus; day 5, PALA 50 mg/kg/d i.v.) of the same molecule?
Its value is 136 PFU and 154 PFU and 148 PFU.

What about the “Severity of Rash” value (simian varicella virus; day 13, PALA 50 mg/kg/d i.v.) of the same molecule?
Its value is 4+.

And the “Severity of Rash” value (simian varicella virus; day 14, PALA 50 mg/kg/d i.v.)?
The value was 4+.

What about the immunosuppression (simian varicella virus; high concentrations) of the same molecule?
Its immunosuppression is “Some concentration dependent immunosuppression was noted at high concentrations”.

And the TI (CMV; HFF)?
The TI was 32.0.

And the IC50 (CMV; Human betaherpesvirus 5, HFF)?
The IC50 was 10 µg/mL (≈ 39.2 µM).

And the “TI (TC50/IC50)” value [4]?
Its value is 0.00.

What about the CC50 (in vitro) of the same molecule?
Its CC50 is 60 µg/mL (≈ 235 µM).

Source: patent US5491135A (priority 1993, dated 1996)
